Results on two molecules are retold here after US20030060445A1, “Nutritional formulation containing prebiotic substances” (priority 2000, published 2003).

Holding throughout (format): cell-based
Assay [1] relates to Bacteroides. The assay is described as follows: Batch culture growth of Bacteroides, titers on selective agar (Example 1). Particulars: carbohydrate-deficient PYG batch culture, 37° C., anaerobic; supplement in place of glucose 3.0 g/L; FIG. 1. How it is done:
(§1) Identical inoculua (A600∇1.0) of overnight cultures (PYG broth, 37° C., anaerobic) of each organism (Clostridia, Bacteroides, or B. lactis) were grown in batch culture (37° C., anaerobic) with constant stirring. Carbohydrate-deficient batch culture media (PYG) was supplemented with either glucose (3.0 g/L), oligofructose (FOS at 3.0 g/L), sialyllactose (3′- or 6′-sialyllactose at […]), or oligofructose plus sialyllactose (3.0 g/l and 100 mg/L, respectively). Growth was monitored at various time points (see FIG. 1) by determining the titers of the bacteria on selective agar (BIM-25 agar for Bifidobacteria and Wilkens-Chalgren agar for Clostridia and Bacteroides).

Assay [2] has as its system Clostridia. Kind of assay: Batch culture growth of Clostridia, titers on selective agar (Example 1). Particulars: carbohydrate-deficient PYG batch culture, 37° C., anaerobic; supplement in place of glucose 3.0 g/L; FIG. 1. How it is done:
as §1

The next assay has as its system B. lactis. The assay is described as follows: Media pH of Bifidobacteria batch culture (Example 3). Particulars: PYG batch culture, 37° C., anaerobic; pH monitored at various time points; FIG. 3. How it is done:
(§2) Identical inoculua (A600∇1.0) of overnight cultures (PYG broth, 37° C., anaerobic) of each organism was grown in batch culture (37° C., anaerobic) with constant stirring. Carbohydrate-deficient batch culture media (PYG) was supplemented as above. The media pH were monitored at various time points.

In assay [3] the test system is Clostridia. Kind of assay: Media pH of Clostridia batch culture (Example 3). The settings on record: PYG batch culture, 37° C., anaerobic; pH monitored at various time points; FIG. 3. Here is the method: as §2
The test system of assay [4] is Bacteroides. The assay is described as follows: Media pH of Bacteroides batch culture (Example 3). Particulars: PYG batch culture, 37° C., anaerobic; pH monitored at various time points; FIG. 3. Here is the method: as §2

`CC(=O)N[C@H]1[C@H]([C@H](O)[C@H](O)CO)O[C@@](O[C@H]2[C@@H](O)[C@@H](CO)O[C@@H](O[C@H]3[C@H](O)[C@@H](O)C(O)O[C@@H]3CO)[C@@H]2O)(C(=O)O)C[C@@H]1O` (some centres unmarked) [3′-sialyllactose]: in the assay on Bacteroides [1], the “growth of Bacteroides” value was “essentially no growth”. Further, the “growth of Clostridia” value in the assay on Clostridia [2] is listed as “essentially no growth”.

With sialyllactose, the “media pH change, Bifidobacteria (B. lactis / B. infantis) culture” value with B. lactis is given as “the pH increased”. Moreover, in the assay with Clostridia [3], the “media pH change, Clostridia culture” value is on record as “the pH increased”. Further, in the assay on Bacteroides [4], the “media pH change, Bacteroides culture” value is “the pH increased”.
